Earlier results as cited in US5814653A, “Pharmaceutical method using 6-substituted-1, 2, 3, 4-tetrahydro-9H-carbazoles and 7-substituted-10H -cyclohepta (7, 6-B) indoles” (priority 1997, dated 1998).

Tests used:
neurogenic inflammation = conditions: Neurology, 43(suppl. 3), S16-S20 (1993)
migraine headache = conditions: Humphrey, et al. (1990)
[1] = in vivo

## CNS(=O)(=O)Cc1ccc2[nH]cc(CCN(C)C)c2c1.O=C(O)CCC(=O)O [Compound I, 3-[2-(dimethylamino)ethyl]-N-methyl-1H-indole-5-methanesulfonamide butane-1,4-dioate (1:1)]
Neurogenic inflammation
  blockade of neurogenic inflammation: blocked
Migraine headache
  effectiveness in the treatment of migraine headache: effective in the treatment of migraine
[1]
  undesirable side effects: undesirable side effects, particularly vasoconstriction
